The source of these data is US12227495B2, “Herbicidal compounds” (SYNGENTA CROP PROTECTION AG, priority 2018, dated 2025).

Holding throughout (type): in vivo
Holding throughout (settings): evaluated after 13 days

Assay [1] deals with Ipomoea hederacea (IPOHE). Description: Post-emergence herbicide test, glasshouse, percentage damage. In outline:
(§1)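 Pot-grown plants were sprayed at 500 g/ha unless otherwise stated, in acetone/water (50:50) with 0.5% Tween 20. Pre-emergence spraying was 1 day after sowing and post-emergence after 8 days, in a glasshouse at 24/16° C, 14 h light, 65% humidity. Percentage damage was scored 13 days later on a 1–5 scale (5=81-100%).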

Assay [2] relates to Setaria faberi (SETFA). Described as above. The method in brief:
as §1

The test system of assay [3] is Solanum nigrum (SOLNI). Described as above. In outline:
as §1

Assay [4] concerns Echinochloa crus-galli (ECHCG). The assay is described as above. In outline:
as §1

The subject of assay [5] is Lolium perenne (LOLPE). The assay is described as above. In outline: as §1
The test system of assay [6] is Amaranthus retoflexus (AMARE). The description is as above. The method in brief: as §1
Assay [7] has as its system Ipomoea hederacea (IPOHE). Description: Pre-emergence herbicide test, glasshouse, percentage damage. In outline:
as §1

Assay [8] has as its system Setaria faberi (SETFA). Described as above. The method in brief: as §1
The test system of assay [9] is Solanum nigrum (SOLNI). The assay is described as above. In outline: as §1
For assay [10], the system named is Echinochloa crus-galli (ECHCG). The description is as above. The method in brief: as §1
The test system of assay [11] is Lolium perenne (LOLPE). Described as above. The method in brief: as §1
Assay [12] deals with Amaranthus retoflexus (AMARE). Described as above. The method in brief: as §1

In the case of `CS(=O)(=O)c1ccc(Oc2cccc(F)c2-c2cc(C(F)F)no2)nc1` [Compound A40], the “percentage damage caused to the plant, IPOHE” value in [1] (1000 g/ha) is reported as 1 (1=0-20%). Moreover, in the assay on Setaria faberi (SETFA) [2] (1000 g/ha), the “percentage damage caused to the plant, SETFA” value was 1 (1=0-20%). In addition, the “percentage damage caused to the plant, SOLNI” value with Solanum nigrum (SOLNI) [3] (1000 g/ha) is on record as 4 (4=61-80%). The “percentage damage caused to the plant, ECHCG” value in [4] (1000 g/ha) is 1 (1=0-20%). Besides, the “percentage damage caused to the plant, LOLPE” value with Lolium perenne (LOLPE) [5] (1000 g/ha) was 1 (1=0-20%). Also, the “percentage damage caused to the plant, AMARE” value in assay [6] (1000 g/ha) is 3 (3=41-60%). Also, the “Pre-emergence Test IPOHE percentage damage (five point scale)” value in assay [7] (rate 1000 g/ha) is recorded as 1 (1=0-20%). The “Pre-emergence Test SETFA percentage damage (five point scale)” value with Setaria faberi (SETFA) [8] (rate 1000 g/ha) is listed as 1 (1=0-20%). In the assay on Solanum nigrum (SOLNI) [9] (rate 1000 g/ha), the “Pre-emergence Test SOLNI percentage damage (five point scale)” value is reported as 1 (1=0-20%). The “Pre-emergence Test ECHCG percentage damage (five point scale)” value in assay [10] (rate 1000 g/ha) is reported as 1 (1=0-20%). The “Pre-emergence Test LOLPE percentage damage (five point scale)” value in the assay with Lolium perenne (LOLPE) [11] (rate 1000 g/ha) is listed as 1 (1=0-20%). Besides, the “Pre-emergence Test AMARE percentage damage (five point scale)” value in [12] (rate 1000 g/ha) was 2 (2=21-40%).
For the molecule `Fc1cccc(Oc2ccc(Br)cn2)c1-c1cc(C(F)F)no1` [Compound A41], the “percentage damage caused to the plant, IPOHE” value in [1] (1000 g/ha) is listed as 5 (5=81-100%). Also, the “percentage damage caused to the plant, SETFA” value with Setaria faberi (SETFA) [2] (1000 g/ha) is on record as 5 (5=81-100%). The “percentage damage caused to the plant, SOLNI” value in the assay on Solanum nigrum (SOLNI) [3] (1000 g/ha) is 5 (5=81-100%). Further, the “percentage damage caused to the plant, ECHCG” value in assay [4] (1000 g/ha) is 5 (5=81-100%). The “percentage damage caused to the plant, LOLPE” value with Lolium perenne (LOLPE) [5] (1000 g/ha) is listed as 5 (5=81-100%). Moreover, in [6] (1000 g/ha), the “percentage damage caused to the plant, AMARE” value is 5 (5=81-100%). In addition, the “Pre-emergence Test IPOHE percentage damage (five point scale)” value in assay [7] (rate 1000 g/ha) is reported as 3 (3=41-60%). The “Pre-emergence Test SETFA percentage damage (five point scale)” value in the assay with Setaria faberi (SETFA) [8] (rate 1000 g/ha) was 5 (5=81-100%). Besides, in the assay on Solanum nigrum (SOLNI) [9] (rate 1000 g/ha), the “Pre-emergence Test SOLNI percentage damage (five point scale)” value is reported as 5 (5=81-100%). The “Pre-emergence Test ECHCG percentage damage (five point scale)” value in assay [10] (rate 1000 g/ha) is reported as 5 (5=81-100%). Moreover, the “Pre-emergence Test LOLPE percentage damage (five point scale)” value in the assay on Lolium perenne (LOLPE) [11] (rate 1000 g/ha) is 5 (5=81-100%). Moreover, in assay [12] (rate 1000 g/ha), the “Pre-emergence Test AMARE percentage damage (five point scale)” value is given as 5 (5=81-100%).
As for `Fc1cc(Cl)cnc1Oc1cccc(Cl)c1-c1cc(C(F)F)no1` [Compound A42], the “percentage damage caused to the plant, IPOHE” value in assay [1] (250 g/ha) is given as 4 (4=61-80%). Besides, the “percentage damage caused to the plant, SETFA” value in the assay with Setaria faberi (SETFA) [2] (250 g/ha) is reported as 5 (5=81-100%). In addition, the “percentage damage caused to the plant, SOLNI” value in the assay with Solanum nigrum (SOLNI) [3] (250 g/ha) is given as 5 (5=81-100%). Also, the “percentage damage caused to the plant, ECHCG” value in assay [4] (250 g/ha) is 4 (4=61-80%). For the same molecule, the “percentage damage caused to the plant, LOLPE” value in the assay with Lolium perenne (LOLPE) [5] (250 g/ha) was 5 (5=81-100%). Besides, the “percentage damage caused to the plant, AMARE” value in assay [6] (250 g/ha) is reported as 5 (5=81-100%). Moreover, the “Pre-emergence Test IPOHE percentage damage (five point scale)” value in assay [7] (rate 250 g/ha) is on record as 3 (3=41-60%). Also, the “Pre-emergence Test SETFA percentage damage (five point scale)” value in the assay with Setaria faberi (SETFA) [8] (rate 250 g/ha) is listed as 5 (5=81-100%). Moreover, the “Pre-emergence Test SOLNI percentage damage (five point scale)” value with Solanum nigrum (SOLNI) [9] (rate 250 g/ha) is recorded as 4 (4=61-80%). Moreover, in assay [10] (rate 250 g/ha), the “Pre-emergence Test ECHCG percentage damage (five point scale)” value was 5 (5=81-100%). In the assay with Lolium perenne (LOLPE) [11] (rate 250 g/ha), the “Pre-emergence Test LOLPE percentage damage (five point scale)” value was 5 (5=81-100%). Besides, the “Pre-emergence Test AMARE percentage damage (five point scale)” value in [12] (rate 250 g/ha) is recorded as 5 (5=81-100%).
As for `Fc1cc(Cl)cnc1Oc1ccccc1-c1cc(C(F)F)no1` [Compound A43], the “percentage damage caused to the plant, IPOHE” value in assay [1] (1000 g/ha) is 4 (4=61-80%). In the assay on Setaria faberi (SETFA) [2] (1000 g/ha), the “percentage damage caused to the plant, SETFA” value is on record as 5 (5=81-100%). For the same molecule, the “percentage damage caused to the plant, SOLNI” value with Solanum nigrum (SOLNI) [3] (1000 g/ha) is 5 (5=81-100%). In addition, the “percentage damage caused to the plant, ECHCG” value in [4] (1000 g/ha) is 4 (4=61-80%). The “percentage damage caused to the plant, LOLPE” value in the assay on Lolium perenne (LOLPE) [5] (1000 g/ha) is on record as 5 (5=81-100%). In addition, the “percentage damage caused to the plant, AMARE” value in assay [6] (1000 g/ha) was 5 (5=81-100%). In assay [7] (rate 1000 g/ha), the “Pre-emergence Test IPOHE percentage damage (five point scale)” value is 4 (4=61-80%). Further, in the assay with Setaria faberi (SETFA) [8] (rate 1000 g/ha), the “Pre-emergence Test SETFA percentage damage (five point scale)” value is 5 (5=81-100%). Further, in the assay on Solanum nigrum (SOLNI) [9] (rate 1000 g/ha), the “Pre-emergence Test SOLNI percentage damage (five point scale)” value is recorded as 5 (5=81-100%). Further, the “Pre-emergence Test ECHCG percentage damage (five point scale)” value in [10] (rate 1000 g/ha) is recorded as 5 (5=81-100%). Besides, the “Pre-emergence Test LOLPE percentage damage (five point scale)” value in the assay with Lolium perenne (LOLPE) [11] (rate 1000 g/ha) is 5 (5=81-100%). Moreover, the “Pre-emergence Test AMARE percentage damage (five point scale)” value in assay [12] (rate 1000 g/ha) is listed as 5 (5=81-100%).
As to `Fc1cc(Cl)cnc1Oc1cccc(Br)c1-c1cc(C(F)F)no1` [Compound A44], the “percentage damage caused to the plant, IPOHE” value in assay [1] (1000 g/ha) is 5 (5=81-100%). Also, in the assay on Setaria faberi (SETFA) [2] (1000 g/ha), the “percentage damage caused to the plant, SETFA” value is 5 (5=81-100%). Also, the “percentage damage caused to the plant, SOLNI” value in the assay on Solanum nigrum (SOLNI) [3] (1000 g/ha) is given as 5 (5=81-100%). Also, in assay [4] (1000 g/ha), the “percentage damage caused to the plant, ECHCG” value is on record as 5 (5=81-100%). Further, in the assay with Lolium perenne (LOLPE) [5] (1000 g/ha), the “percentage damage caused to the plant, LOLPE” value was 5 (5=81-100%). Also, in [6] (1000 g/ha), the “percentage damage caused to the plant, AMARE” value was 5 (5=81-100%). For the same molecule, the “Pre-emergence Test IPOHE percentage damage (five point scale)” value in assay [7] (rate 1000 g/ha) was 5 (5=81-100%). Moreover, the “Pre-emergence Test SETFA percentage damage (five point scale)” value in the assay on Setaria faberi (SETFA) [8] (rate 1000 g/ha) is 5 (5=81-100%). For the same molecule, the “Pre-emergence Test SOLNI percentage damage (five point scale)” value in the assay on Solanum nigrum (SOLNI) [9] (rate 1000 g/ha) was 5 (5=81-100%). Further, the “Pre-emergence Test ECHCG percentage damage (five point scale)” value in assay [10] (rate 1000 g/ha) is listed as 5 (5=81-100%). For the same molecule, the “Pre-emergence Test LOLPE percentage damage (five point scale)” value in the assay with Lolium perenne (LOLPE) [11] (rate 1000 g/ha) is 5 (5=81-100%). Moreover, the “Pre-emergence Test AMARE percentage damage (five point scale)” value in assay [12] (rate 1000 g/ha) is 5 (5=81-100%).
